The source of these data is patent US9938262B2, “Benzamides” (Merck Patent GmbH, priority 2011, dated 2018).

One assay deals with T1, FSHR (Homo sapiens, UniProt P23945).
T1 construct: expressed in transfected cells; host or cells: CHO (Cho-FSHR-LUC-1-1-43)
T1 sequence (P23945 18-695): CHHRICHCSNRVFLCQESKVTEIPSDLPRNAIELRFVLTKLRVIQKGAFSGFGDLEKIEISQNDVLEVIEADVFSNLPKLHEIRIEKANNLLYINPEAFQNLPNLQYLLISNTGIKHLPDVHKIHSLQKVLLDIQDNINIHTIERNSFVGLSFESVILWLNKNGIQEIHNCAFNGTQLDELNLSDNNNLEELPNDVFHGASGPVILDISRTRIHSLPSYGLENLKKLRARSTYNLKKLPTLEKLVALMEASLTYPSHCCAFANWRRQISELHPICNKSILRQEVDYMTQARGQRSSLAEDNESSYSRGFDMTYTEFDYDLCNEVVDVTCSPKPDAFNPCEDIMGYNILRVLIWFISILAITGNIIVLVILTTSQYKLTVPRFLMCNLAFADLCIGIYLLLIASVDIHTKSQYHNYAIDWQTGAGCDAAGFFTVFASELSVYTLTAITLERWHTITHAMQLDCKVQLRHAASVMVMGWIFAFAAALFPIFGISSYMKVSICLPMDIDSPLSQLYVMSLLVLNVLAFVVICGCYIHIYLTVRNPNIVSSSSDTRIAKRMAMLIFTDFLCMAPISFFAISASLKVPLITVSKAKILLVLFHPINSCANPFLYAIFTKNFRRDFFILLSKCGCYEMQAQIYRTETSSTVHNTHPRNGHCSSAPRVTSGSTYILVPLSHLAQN
T1 sequence (P01215 25-116 partner): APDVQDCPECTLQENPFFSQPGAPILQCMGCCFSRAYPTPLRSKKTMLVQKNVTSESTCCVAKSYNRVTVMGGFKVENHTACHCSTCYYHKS
T1 sequence (P01225 19-129 partner): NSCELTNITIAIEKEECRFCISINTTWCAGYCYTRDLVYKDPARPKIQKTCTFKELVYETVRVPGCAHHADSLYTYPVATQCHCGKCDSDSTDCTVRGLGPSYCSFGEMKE
Briefly: EC50 of cyclic AMP production in CHO FSHR cells + EC20 FSH (Assay A). Type of assay: cell-based. Conditions: 1 h; 5 μM; effect relative to maximum response of the FSH standard; Table 1. On the procedure:
Example 10: EC50 of Cyclic AMP Production in CHO FSHR Cells+EC20 FSH (Assay A)
2500 Cho-FSHR-LUC-1-1-43 cells were plated per well in 5 μl of phenol red free DMEM/F12+1% FBS. Cells were plated in 384 well, solid white low volume plates (Greiner 784075) by Multidrop. Cells were assayed by adding 100 μl of 2×EC20 FSH/IBMX in DMEM/F12+0.1% BSA) by Multidrop to 2 μl of test compound stamped in 384 well plates (compounds are diluted 1:50). The final FSH concentration was […], and the final IBMX concentration was 200 μM. The compound plate map was as follows: Column 1: 2 μl of DMSO; Column 2: 2 μl of DMSO; Columns 3-12 and 13-24: 2 μl of test compound, diluted 1:4 in 100% DMSO, or 2 μl of FSH, diluted 1:4 in DMEM/F12+0.1% BSA. The starting concentration for FSH was 50 nM (final concentration was 0.5 nM). […] 5 μl of compound+EC20 FSH mixture were transferred to cell plates (1:2 dilution into 5 μl of cell media) The plates were incubated at 37° C. for 1 h. 10 μl of mixed HTRF (CisBio #62AM4PEC) reagents were added per well and incubated at room temperature for 1 h. The plates were read on Envision using the cAMP HTRF—low volume 384 well protocol. The readout was the calculated fluorescence ratio (665 nm/620 nm). Values given in percent (%) indicate the percental effect (response) at a certain concentration of agonist relative to the maximum response of the FSH standard.
As to `Cc1ccccc1N1CCN(c2ccc(C(=O)NCCCN3CCCC3=O)cc2NC(=O)c2conc2C)CC1` [Compound 80], the activation at 5 µM came to 22%. As for `Cc1ccccc1N1CCN(c2ccc(C(=O)NCCCN3CCCC3=O)cc2NS(=O)(=O)c2ccco2)CC1` [Compound 46], the activation at 5 µM is 10%.

With `Cc1ccccc1N1CCN(c2ccc(C(=O)NCCCN3CCCC3=O)cc2NS(=O)(=O)Cc2cccc3cccnc23)CC1` [Compound 239], the activation at 5 µM is 43%. On the same count and under the same terms, for `COc1ccc(CNC(=O)c2ccc(N3CCN(c4ccccc4C)CC3)c(NC(=O)c3ccco3)c2)cc1` [Compound 122] the value was 24%. The same measure, in the same setting: for `Cc1ccccc1N1CCN(c2ccc(C(=O)NCCCN3CCCC3=O)cc2NC(=O)c2ccc(C(F)(F)F)cc2)CC1` [Compound 40] the value was 40%.

Still in this assay, the particulars now being: 1 h; 5 μM; effect relative to maximum response of the FSH standard; Table 2.
Regarding `Cc1ccc(C(=O)Nc2cc(C(=O)NCCCN3CCCC3=O)ccc2N2CCN(c3ccccc3N)CC2)o1` [Compound 272], the activation at 5 µM stood at 30%.

Still in this assay, the particulars now being: CHO FSHR cells + EC20 FSH; Table 1; read-out: Assay A EC50 of cyclic AMP production.
Consider `COc1ccccc1C(=O)Nc1cc(C(=O)NCCCN2CCCC2=O)ccc1N1CCN(c2ccccc2C)CC1` [Compound 41], for which the EC50 lay in the range of 1000 to 10000 nM. Still for that read-out and setting: to `Cc1ccccc1N1CCN(c2ccc(C(=O)NCCCN3CCCC3=O)cc2NC(=O)c2cccc(Cl)c2)CC1` [Compound 28] belongs 1000 to 10000 nM; to `Cc1ccccc1N1CCN(c2ccc(C(=O)NCCCN3CCCC3)cc2NC(=O)c2ccco2)CC1` [Compound 117], 1000 to 10000 nM.

Consider `C=CC(=O)NCCCNC(=O)c1ccc(N2CCN(c3ccccc3C)CC2)c(NC(=O)c2ccco2)c1` [Compound 212], for which the EC50 lay in the range of 100 to 1000 nM. The same measure, in the same setting: for `Cc1cc(C(=O)Nc2cc(C(=O)NCCCN3CCCC3=O)ccc2N2CCN(c3ccccc3C)CC2)c(C(F)(F)F)o1` [Compound 1] the value was 100 to 1000 nM. The same measure, in the same setting: for `COc1ccc(CNC(=O)c2ccc(N3CCN(c4ccccc4C)CC3)c(NC(=O)c3ccco3)c2)cc1OC` [Compound 17] the value was 100 to 1000 nM. On the same count and under the same terms, for `Cc1ccccc1N1CCN(c2ccc(C(=O)NCc3ccccc3C(N)=O)cc2NC(=O)c2ccco2)CC1` [Compound 238] the value was 100 to 1000 nM; for `Cc1ccccc1N1CCN(c2ccc(C(=O)NCCCN3CCCC3=O)cc2NC(=O)c2sc(Cl)nc2C)CC1` [Compound 201], over 10000 nM; for `Cc1ccccc1N1CCN(c2ccc(C(=O)NCCCN3CCCC3=O)cc2NC(=O)C2CCCO2)CC1` (stereo not drawn) [Compound 92], 1000 to 10000 nM. Consider `Cc1ccc(C(=O)Nc2cc(C(=O)NC3CC3)ccc2N2CCN(c3ccccc3C)CC2)o1` [Compound 195, 5-Methyl-furan-2-carboxylic acid [5-cyclopropylcarbamoyl-2-(4-o-tolyl-piperazin-1-yl)-phenyl]amide], for which the EC50 is 1000 to 10000 nM.

With `Cc1ccccc1N1CCN(c2ccc(C(=O)NCCCN3CCCC3=O)cc2NC(=O)c2cnc(Cl)s2)CC1` [Compound 197], the EC50 lay within 1000 to 10000 nM.

Regarding `Cc1ccccc1N1CCN(c2ccc(C(=O)NCCCc3ccccc3)cc2NC(=O)c2ccco2)CC1` [Compound 89], the EC50 was 100 to 1000 nM. On the same count and under the same terms, to `CCNC(=O)N1CCC[C@@H](NC(=O)c2ccc(N3CCN(c4ccccc4C)CC3)c(NC(=O)c3ccco3)c2)C1` [Compound 48, (R)-3-[3-[(furan-2-carbonyl)-amino]-4-(4-o-tolyl-piperazin-1-yl)-benzoylamino]-piperidine-1-carboxylic acid ethylamide] belongs 1000 to 10000 nM. The same measure, in the same setting: for `Cc1ccccc1N1CCN(c2ccc(C(=O)NCCC(=O)N3CCCC3)cc2NC(=O)c2ccco2)CC1` [Compound 120] the value was 100 to 1000 nM. On the same count and under the same terms, to `CCc1ocnc1C(=O)Nc1cc(C(=O)NCCCN2CCCC2=O)ccc1N1CCN(c2ccccc2C)CC1` [Compound 77] belongs 1000 to 10000 nM; to `Cc1ccccc1N1CCN(c2ccc(C(=O)NCc3cccc(-c4ccn(C)n4)c3)cc2NC(=O)c2ccco2)CC1` [Compound 240], 100 to 1000 nM. Turning to `Cc1ccccc1N1CCN(c2ccc(C(=O)NCc3ccc(Cl)cc3)cc2NC(=O)c2ccco2)CC1` [Compound 131, Furan-2-carboxylic acid [5-(4-chloro-benzylcarbamoyl)-2-(4-o-tolyl-piperazin-1-yl)-phenyl]-amide], the EC50 fell in the range of 100 to 1000 nM. The same measure, in the same setting: to `Cc1ccccc1N1CCN(c2ccc(C(=O)NCC3(CN4CCCC4)CC3)cc2NC(=O)c2ccco2)CC1` [Compound 154] belongs 1000 to 10000 nM. Regarding `Cc1ccccc1N1CCN(c2ccc(C(=O)NCCCN3CCCC3=O)cc2NC(=O)c2ccc[nH]2)CC1` [Compound 24], the EC50 lay within 1000 to 10000 nM.

Still in this assay, the particulars now being: CHO FSHR cells + EC20 FSH; Table 2; read-out: Assay A EC50 of cyclic AMP production.
On to `Cc1ccccc1N1CCN(c2ccc(C(=O)NCCCn3cccc3)cc2NC(=O)c2coc(C3CC3)n2)CC1` [Compound 279], for which the EC50 is 100 to 1000 nM. The same measure, in the same setting: to `Cc1ccc(C(=O)Nc2cc(C(=O)NC(C)CCN3CCCC3=O)ccc2N2CCN(c3ccccc3C)CC2)o1` (stereo not drawn) [Compound 398] belongs 100 to 1000 nM.

Turning to `CN(C)c1ccc(N2CCN(c3ccc(C(=O)NCCCN4CCCC4=O)cc3NC(=O)c3coc(C4CC4)n3)CC2)nn1` [Compound 602], the EC50 is 100 to 1000 nM.

With `Cc1ccccc1N1CCN(c2ccc(C(=O)NCCCN3C(=O)OCC3(C)C)cc2NC(=O)c2coc(C3CC3)n2)CC1` [Compound 358], the EC50 fell in the range of 100 to 1000 nM. For `CC(=O)NCCCCNC(=O)c1ccc(N2CCN(c3ccccc3C)CC2)c(NC(=O)c2coc(C3CC3)n2)c1` [Compound 318], the EC50 was 100 to 1000 nM.

Take `Cc1cc(N2CCN(c3ccc(C(=O)NCCCN4CCCC4=O)cc3NC(=O)c3coc(C4CC4)n3)CC2)ncn1` [Compound 597]: the EC50 was over 10000 nM. The same measure, in the same setting: for `Cc1ccccc1N1CCN(c2ccc(C(=O)NCc3cccc(CN(C)C)c3)cc2NC(=O)c2coc(C3CC3)n2)CC1` [Compound 348] the value was 100 to 1000 nM; for `CCn1nc(C2CC2)cc1C(=O)Nc1cc(C(=O)NCCCN2CCCC2=O)ccc1N1CCN(c2ccccc2C)CC1` [Compound 324], 1000 to 10000 nM.

For `O=C(NCCCN1CCCC1=O)c1ccc(N2CCN(c3cccc4[nH]ccc34)CC2)c(NC(=O)c2coc(C3CC3)n2)c1` [Compound 553], the EC50 was 100 to 1000 nM. In the case of `Cc1cccc(C)c1N1CCN(c2ccc(C(=O)NCCCN3CCCC3=O)cc2NC(=O)c2coc(C3CC3)n2)CC1` [Compound 299], the EC50 was in the range of 1000 to 10000 nM. On the same count and under the same terms, for `O=C(NCCCN1CCCC1=O)c1ccc(N2CCN(c3ccccc3OC(F)(F)F)CC2)c(NC(=O)c2coc(C3CC3)n2)c1` [Compound 403] the value was 1000 to 10000 nM. On the same count and under the same terms, for `Cc1ccccc1N1CCN(c2ccc(C(=O)NCCCn3cccn3)cc2NC(=O)c2coc(C3CC3)n2)CC1` [Compound 275] the value was 100 to 1000 nM; for `Cc1ccccc1N1CCN(c2ccc(C(=O)NC(C)c3ccccc3)cc2NC(=O)c2coc(C3CC3)n2)CC1` (stereo not drawn) [Compound 346], 100 to 1000 nM; for `Cc1ccc2[nH]cc(CCNC(=O)c3ccc(N4CCN(c5ccccc5C)CC4)c(NC(=O)c4coc(C5CC5)n4)c3)c2c1` [Compound 569], 1000 to 10000 nM. Still for that read-out and setting: to `Cc1ccccc1N1CCN(c2ccc(C(=O)NCCCC3CCOC3)cc2NC(=O)c2coc(C3CC3)n2)CC1` (stereo not drawn) [Compound 282] belongs 100 to 1000 nM; to `Cc1ccccc1N1CCN(c2ccc(C(=O)N[C@@H]3C[C@H](CO)[C@@H](O)[C@H]3O)cc2NC(=O)c2coc(C3CC3)n2)CC1` [Compound 551], under 100 nM; to `Cc1ccccc1N1CCN(c2ccc(C(=O)NCCCN3C(=O)[C@@H]4CC[C@H]3C4)cc2NC(=O)c2coc(C3CC3)n2)CC1` [Compound 353], 100 to 1000 nM. Consider `Cc1ccccc1N1CCN(c2ccc(C(=O)NCCCN3CCCC3C(N)=O)cc2NC(=O)c2ccco2)CC1` (stereo not drawn) [Compound 503], for which the EC50 fell in the range of 100 to 1000 nM. Consider `Cc1ccccc1N1CCN(c2ccc(C(=O)N3CCC4(COC4)C3)cc2NC(=O)c2ccco2)CC1` [Compound 587], for which the EC50 is 1000 to 10000 nM.

Turning to `Cc1ccccc1N1CCN(c2ccc(C(=O)NCCNC3CCCC3)cc2NC(=O)c2ccco2)CC1` [Compound 389], the 50% effective concentration (EC50) is over 10000 nM. Take `CCc1ccccc1N1CCN(c2ccc(C(=O)NCCCN3CCCC3=O)cc2NC(=O)c2coc(C3CC3)n2)CC1` [Compound 516]: the EC50 lay in the range of 100 to 1000 nM. Consider `Cc1ccc(C(=O)Nc2cc(C(=O)NCCCc3cn[nH]c3)ccc2N2CCN(c3ccccc3C)CC2)o1` [Compound 334], for which the EC50 was 100 to 1000 nM.

With `CCN(CC)Cc1cccc(CNC(=O)c2ccc(N3CCN(c4ccccc4C)CC3)c(NC(=O)c3ccco3)c2)c1` [Compound 473], the EC50 was 100 to 1000 nM.

Regarding `Cc1ccccc1N1CCN(c2ccc(C(=O)NCc3cccc(CN(C)C(=O)OC(C)(C)C)c3)cc2NC(=O)c2ccco2)CC1` [Compound 326], the EC50 was over 10000 nM. On the same count and under the same terms, to `COc1ccnc(N2CCN(c3ccc(C(=O)NCCCN4CCCC4=O)cc3NC(=O)c3coc(C4CC4)n3)CC2)c1` [Compound 530] belongs 1000 to 10000 nM; to `Cc1ccccc1C1(O)CCN(c2ccc(C(=O)NCCCN3CCCC3=O)cc2NC(=O)c2coc(C3CC3)n2)CC1` [Compound 539], 1000 to 10000 nM.

The EC50 is the concentration needed to bring the measured effect to its halfway point.
